Here are results for four compounds from PubChem BioAssay (NCI).

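Compound exposure: 48 hours, 5 concentrations, 96-well plates. TGI marks complete inhibition of growth.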

The first assay has as its system NCI-H23 lung. As to the kind of experiment: DTP human tumour cell line panel, 48 h.
By TGI is commonly meant the concentration giving total growth inhibition. `O=C(CCNC12CC3CC(CC(C3)C1)C2)c1ccccc1` returned a concentration for total growth inhibition (TGI) of 48.8 µM.

Consider `COC(=O)CC[N+]1=CCC(c2ccccc2)(c2ccccc2)O1`, for which the TGI is over 100 µM.

With `Nc1c2c(nc3ccccc13)-c1ccccc1CC2`, the TGI was 27.2 µM.

Consider `CO/C(=N\N=C\c1ccc(C(F)(F)F)cc1)c1ccncc1`, for which the TGI was over 10 µM.

The next assay deals with SK-MEL-2 melanoma. As to the kind of experiment: DTP human tumour cell line panel, 48 h.
Regarding `O=C(CCNC12CC3CC(CC(C3)C1)C2)c1ccccc1`, the total growth inhibition concentration (TGI) amounted to 30 µM. This counts as double-digit micromolar.

The compound `COC(=O)CC[N+]1=CCC(c2ccccc2)(c2ccccc2)O1` registered a TGI of over 100 µM.

Compound `Nc1c2c(nc3ccccc13)-c1ccccc1CC2` registered a TGI of 23 µM.

`CO/C(=N\N=C\c1ccc(C(F)(F)F)cc1)c1ccncc1` registered a TGI of over 10 µM.

The test system of a further assay is SF-268 CNS. As to the kind of experiment: DTP human tumour cell line panel, 48 h.
For `O=C(CCNC12CC3CC(CC(C3)C1)C2)c1ccccc1`, the TGI is over 100 µM.

In turn, `COC(=O)CC[N+]1=CCC(c2ccccc2)(c2ccccc2)O1` showed a TGI of over 100 µM.

`Nc1c2c(nc3ccccc13)-c1ccccc1CC2` had a TGI of 22.3 µM.

For the compound `CO/C(=N\N=C\c1ccc(C(F)(F)F)cc1)c1ccncc1`, the TGI is over 10 µM.

The next assay relates to 786-0 renal. As to the kind of experiment: DTP human tumour cell line panel, 48 h.
The compound `O=C(CCNC12CC3CC(CC(C3)C1)C2)c1ccccc1` displayed a TGI of 31.6 µM. In other words, the double-digit micromolar range.

As for `COC(=O)CC[N+]1=CCC(c2ccccc2)(c2ccccc2)O1`, the total growth inhibition concentration (TGI) was over 100 µM.

As for `Nc1c2c(nc3ccccc13)-c1ccccc1CC2`, the concentration for total growth inhibition (TGI) came to 14.1 µM.

For the compound `CO/C(=N\N=C\c1ccc(C(F)(F)F)cc1)c1ccncc1`, the TGI was over 10 µM.

The next assay relates to HOP-62 NSCLC. As to the kind of experiment: DTP human tumour cell line panel, 48 h.
Take `COC(=O)CC[N+]1=CCC(c2ccccc2)(c2ccccc2)O1`: the concentration for total growth inhibition (TGI) is over 100 µM.

`CO/C(=N\N=C\c1ccc(C(F)(F)F)cc1)c1ccncc1` came in with a TGI of over 10 µM.

In a further assay the test system is SF-539 CNS. As to the kind of experiment: DTP human tumour cell line panel, 48 h.
In turn, `O=C(CCNC12CC3CC(CC(C3)C1)C2)c1ccccc1` returned a TGI of 40.3 µM.

`COC(=O)CC[N+]1=CCC(c2ccccc2)(c2ccccc2)O1`: the TGI is over 100 µM.

Turning to `Nc1c2c(nc3ccccc13)-c1ccccc1CC2`, the TGI came out at 15.1 µM.

In the next assay the test system is LOX IMVI melanoma. As to the kind of experiment: DTP human tumour cell line panel, 48 h.
With `Nc1c2c(nc3ccccc13)-c1ccccc1CC2`, the TGI came out at 15.5 µM.

For `CO/C(=N\N=C\c1ccc(C(F)(F)F)cc1)c1ccncc1`, the TGI is over 10 µM.

The test system of another assay is TK-10 renal. As to the kind of experiment: DTP human tumour cell line panel, 48 h.
For the compound `O=C(CCNC12CC3CC(CC(C3)C1)C2)c1ccccc1`, the TGI is 39.6 µM.

In the case of `COC(=O)CC[N+]1=CCC(c2ccccc2)(c2ccccc2)O1`, the TGI was over 100 µM.

In the case of `Nc1c2c(nc3ccccc13)-c1ccccc1CC2`, the TGI came to 14.7 µM.

In turn, `CO/C(=N\N=C\c1ccc(C(F)(F)F)cc1)c1ccncc1` gave a TGI of over 10 µM.

Another assay has as its system M14 melanoma. As to the kind of experiment: DTP human tumour cell line panel, 48 h.
Consider `O=C(CCNC12CC3CC(CC(C3)C1)C2)c1ccccc1`, for which the TGI is 37.1 µM.

`COC(=O)CC[N+]1=CCC(c2ccccc2)(c2ccccc2)O1` came in with a concentration for total growth inhibition (TGI) of over 100 µM.

`CO/C(=N\N=C\c1ccc(C(F)(F)F)cc1)c1ccncc1` displayed a TGI of over 10 µM.

A further assay deals with PC-3 prostate. As to the kind of experiment: DTP human tumour cell line panel, 48 h.
Take `O=C(CCNC12CC3CC(CC(C3)C1)C2)c1ccccc1`: the TGI came out at 50.5 µM.

In the case of `COC(=O)CC[N+]1=CCC(c2ccccc2)(c2ccccc2)O1`, the TGI is over 100 µM.

On to `Nc1c2c(nc3ccccc13)-c1ccccc1CC2`, for which the TGI was 14.4 µM.

`CO/C(=N\N=C\c1ccc(C(F)(F)F)cc1)c1ccncc1` displayed a TGI of over 10 µM.

A further assay deals with T-47D breast. As to the kind of experiment: DTP human tumour cell line panel, 48 h.
The compound `O=C(CCNC12CC3CC(CC(C3)C1)C2)c1ccccc1` gave a TGI of 55.4 µM.

With `COC(=O)CC[N+]1=CCC(c2ccccc2)(c2ccccc2)O1`, the TGI is over 100 µM.

Consider `CO/C(=N\N=C\c1ccc(C(F)(F)F)cc1)c1ccncc1`, for which the TGI is over 10 µM.

For the next assay, the system named is MOLT-4 leukemia. As to the kind of experiment: DTP human tumour cell line panel, 48 h.
In turn, `O=C(CCNC12CC3CC(CC(C3)C1)C2)c1ccccc1` came in with a total growth inhibition concentration (TGI) of 35.3 µM.

The compound `COC(=O)CC[N+]1=CCC(c2ccccc2)(c2ccccc2)O1` displayed a TGI of over 100 µM.

Compound `Nc1c2c(nc3ccccc13)-c1ccccc1CC2` had a TGI of 9.23 µM.

Turning to `CO/C(=N\N=C\c1ccc(C(F)(F)F)cc1)c1ccncc1`, the TGI is over 10 µM.

In the next assay the test system is MDA-N. As to the kind of experiment: DTP human tumour cell line panel, 48 h.
`O=C(CCNC12CC3CC(CC(C3)C1)C2)c1ccccc1` yielded a TGI of 30.5 µM.

In turn, `COC(=O)CC[N+]1=CCC(c2ccccc2)(c2ccccc2)O1` gave a TGI of over 100 µM.

Compound `Nc1c2c(nc3ccccc13)-c1ccccc1CC2` yielded a TGI of 16 µM.

Compound `CO/C(=N\N=C\c1ccc(C(F)(F)F)cc1)c1ccncc1` displayed a TGI of over 10 µM.

The test system of another assay is SNB-19 CNS. As to the kind of experiment: DTP human tumour cell line panel, 48 h.
In turn, `O=C(CCNC12CC3CC(CC(C3)C1)C2)c1ccccc1` registered a TGI of over 100 µM.

For the compound `COC(=O)CC[N+]1=CCC(c2ccccc2)(c2ccccc2)O1`, the TGI is over 100 µM.

As for `CO/C(=N\N=C\c1ccc(C(F)(F)F)cc1)c1ccncc1`, the total growth inhibition concentration (TGI) is over 10 µM.
